What all share (assay type): cell-based
Experiment [1] has as its system Bacteroides thetiotaomicron ATCC 29741. Nature of the experiment: Antimicrobial susceptibility, broth microdilution MIC (CLSI), QC strain. The note with it: for MIC: Bacteroides, ATCC 29741 / ATCC 297415, read-out: MIC, QC ATCC 297415. More on the design: MIC, QC ATCC 297415: unit not given beside the values. Background: In broth dilution the organism is exposed to a series of concentrations in liquid medium.

The test system of experiment [2] is Akkermansia muciniphila ATCC BAA-835. In words: Antimicrobial susceptibility, broth microdilution MIC (CLSI), type strain. As to conditions: for MIC: Akkermansia muciniphila, ATCCBAA835, broth microdilution, read-out: MIC, test strain ATCC BAA-835.
In experiment [3] the test system is Akkermansia muciniphila EB-AMDK39 strain. Nature of the experiment: Antimicrobial susceptibility, broth microdilution MIC (CLSI), isolated strain. The note with it: for MIC: Akkermansia muciniphila, EBAMDK39STRAIN, read-out: MIC, test strain EB-AMDK39, broth microdilution.

Converted amounts (≈) assume the structure as drawn.

The MIC is the least concentration at which growth counts as inhibited. For the compound `O=C(N[C@H](CO)[C@H](O)c1ccc([N+](=O)[O-])cc1)C(Cl)Cl` [CHL, chloramphenicol], the results for the MIC in experiment [1], in experiment [2] and in experiment [3] were 8 µg/mL (≈ 24.8 µM), 4 µg/mL (≈ 12.4 µM) and 8 µg/mL (≈ 24.8 µM), respectively. In addition, the “Susceptibility category by MIC breakpoints, CHL” value in experiment [2] (ATCC BAA-835, CHL breakpoints) is given as “S (≤8)”; in experiment [3] (EB-AMDK39, CHL breakpoints) it was “S (≤8)”.

Consider `CCC[C@@H]1C[C@@H](C(=O)N[C@@H]([C@H]2O[C@H](SC)[C@H](O)[C@@H](O)[C@H]2O)[C@H](C)Cl)N(C)C1` [CLI, clindamycin], for which the “Susceptibility category by MIC breakpoints, CLI” value is given as “S (≤2)” in experiment [2] (ATCC BAA-835, CLI breakpoints) and “R (≥8)” in experiment [3] (EB-AMDK39, CLI breakpoints). For the same compound, the minimum inhibitory concentration (MIC) in experiment [2] was at most 0.125 µg/mL; in experiment [3], above 64 µg/mL.

In the case of `CO/N=C(\C(=O)N[C@@H]1C(=O)N2C(C(=O)O)=CCS[C@H]12)c1csc(N)n1` [CTZ, ceftizoxime], the MIC stood at 16 µg/mL (≈ 41.7 µM) in experiment [1], 2 µg/mL (≈ 5.22 µM) in experiment [2] and 256 µg/mL (≈ 668 µM) in experiment [3]. Moreover, the “Susceptibility category by MIC breakpoints, CTZ” value in experiment [2] (ATCC BAA-835, CTZ breakpoints) was “S (≤32)”; in experiment [3] (EB-AMDK39, CTZ breakpoints), “R (≥128)”.

As to `C[C@@H](O)[C@H]1C(=O)N2C(C(=O)O)=C(S[C@@H]3CN[C@H](C(=O)N(C)C)C3)[C@H](C)[C@H]12` [MEM, meropenem], the minimum inhibitory concentration (MIC) was determined as 0.5 µg/mL (≈ 1.3 µM) in experiment [1], 1 µg/mL (≈ 2.61 µM) in experiment [2] and 4 µg/mL (≈ 10.4 µM) in experiment [3]. In addition, the “Susceptibility category by MIC breakpoints, MEM” value was “S (≤4)” in experiment [2] (ATCC BAA-835, MEM breakpoints) and “S (≤4)” in experiment [3] (EB-AMDK39, MEM breakpoints).

On to `Cc1ncc([N+](=O)[O-])n1CCO` [MTZ, metronidazole], for which the minimal inhibitory concentration (MIC) in experiment [1] is 2 µg/mL (≈ 11.7 µM); in experiment [2], at most 0.25 µg/mL; in experiment [3], 1 µg/mL (≈ 5.84 µM). In addition, the “Susceptibility category by MIC breakpoints, MTZ” value in experiment [2] (ATCC BAA-835, MTZ breakpoints) is “S (≤8)”; in experiment [3] (EB-AMDK39, MTZ breakpoints) it was “S (≤8)”.

Regarding `COc1c(N2C[C@@H]3CCCN[C@@H]3C2)c(F)cc2c(=O)c(C(=O)O)cn(C3CC3)c12` [MXF, moxifloxacin], the MIC in experiment [1] was 8 µg/mL (≈ 19.9 µM); in experiment [2], above 32 µg/mL; in experiment [3], above 32 µg/mL. The “Susceptibility category by MIC breakpoints, MXF” value is given as “R (≥8)” in experiment [2] (ATCC BAA-835, MXF breakpoints) and “R (≥8)” in experiment [3] (EB-AMDK39, MXF breakpoints).

Turning to Piperacillin-tazobactam [PTZ], the “MIC, QC ATCC 297415” value in experiment [1] (broth microdilution, QC strain) was 8/4. Moreover, the “Susceptibility category by MIC breakpoints, PTZ” value is recorded as “S (≤32/4)” in experiment [2] (ATCC BAA-835, PTZ breakpoints) and “S (≤32/4)” in experiment [3] (EB-AMDK39, PTZ breakpoints).

Source of the values: patent publication US20250057893A1, “PHARMACEUTICAL COMPOSITION FOR PREVENTING OR TREATING CANCER OR INFLAMMATORY DISEASE” (ENTEROBIOME INC., priority 2021, published 2025).
